The values that follow are results of earlier work, collected in paper PMC7682800 (Arteriosclerosis, Thrombosis, and Vascular Biology, 2020).

This data set concerns PAR1. The settings on record: oral administration.

Structures are written as SMILES. Where only a bound is given, the exact number is not on record here.

Take `CCOC(=O)N[C@@H]1CC[C@@H]2[C@@H](C1)C[C@H]1C(=O)O[C@H](C)[C@H]1[C@H]2/C=C/c1ccc(-c2cccc(F)c2)cn1` [vorapaxar]: the Pharmacodynamic half-life is listed as at least 4 weeks.
